# PubChem BioAssay (NCI)
#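 Compound exposure: 48 hours, 5 concentrations, 96-well plates. GI50 is the concentration that inhibits growth by half. TGI marks complete inhibition of growth.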
# Legend:
# Assay in all cases: NCI-60 cell line screen, 48 h
# MOLT-4 leukemia = tested on: MOLT-4 leukemia
# IGROV1 ovarian = tested on: IGROV1 ovarian
# CAKI-1 renal = tested on: CAKI-1 renal
# SW-620 colon = tested on: SW-620 colon
# 786-0 renal = tested on: 786-0 renal
# NCI-H522 lung = tested on: NCI-H522 lung
# K-562 leukemia = tested on: K-562 leukemia
# HCT-116 colon = tested on: HCT-116 colon
# MALME-3M melanoma = tested on: MALME-3M melanoma
# SF-539 CNS = tested on: SF-539 CNS
# A549 NSCLC = tested on: A549 NSCLC
# SK-MEL-5 melanoma = tested on: SK-MEL-5 melanoma
# SK-MEL-28 melanoma = tested on: SK-MEL-28 melanoma
# COLO 205 colon = tested on: COLO 205 colon
# TK-10 renal = tested on: TK-10 renal
# SK-MEL-2 melanoma = tested on: SK-MEL-2 melanoma
# RPMI-8226 leukemia = tested on: RPMI-8226 leukemia
# MCF7 breast = tested on: MCF7 breast
# EKVX NSCLC = tested on: EKVX NSCLC
# UO-31 renal = tested on: UO-31 renal
# LOX IMVI melanoma = tested on: LOX IMVI melanoma
# A498 renal = tested on: A498 renal
# NCI-H23 lung = tested on: NCI-H23 lung
# HL-60(TB) leukemia = tested on: HL-60(TB) leukemia
# HOP-92 NSCLC = tested on: HOP-92 NSCLC
# SNB-75 CNS = tested on: SNB-75 CNS
# SF-268 CNS = tested on: SF-268 CNS
# SNB-19 CNS = tested on: SNB-19 CNS
# OVCAR-4 ovarian = tested on: OVCAR-4 ovarian
# MDA-MB-231 breast = tested on: MDA-MB-231 breast
# HT29 colon = tested on: HT29 colon
# DU-145 prostate = tested on: DU-145 prostate
# T-47D breast = tested on: T-47D breast
# UACC-257 melanoma = tested on: UACC-257 melanoma
# NCI-H226 lung = tested on: NCI-H226 lung
# UACC-62 melanoma = tested on: UACC-62 melanoma
# OVCAR-8 ovarian = tested on: OVCAR-8 ovarian
# M14 melanoma = tested on: M14 melanoma
# SK-OV-3 ovarian = tested on: SK-OV-3 ovarian
# OVCAR-3 ovarian = tested on: OVCAR-3 ovarian
# SF-295 CNS = tested on: SF-295 CNS
# HCC-2998 colon = tested on: HCC-2998 colon
# PC-3 prostate = tested on: PC-3 prostate
# CCRF-CEM leukemia = tested on: CCRF-CEM leukemia
# KM12 colon = tested on: KM12 colon
# BT-549 breast = tested on: BT-549 breast
# SN12C renal = tested on: SN12C renal
# OVCAR-5 ovarian = tested on: OVCAR-5 ovarian
# MDA-MB-435 = tested on: MDA-MB-435
# U251 CNS = tested on: U251 CNS
# SR leukemia = tested on: SR leukemia
# NCI-H460 lung = tested on: NCI-H460 lung
# HS 578T breast = tested on: HS 578T breast
# HOP-62 NSCLC = tested on: HOP-62 NSCLC
# ACHN renal = tested on: ACHN renal
# HCT-15 colon = tested on: HCT-15 colon
# NCI/ADR-RES ovarian = tested on: NCI/ADR-RES ovarian
# RXF 393 renal = tested on: RXF 393 renal
smiles,measurement,setting,value
O=[N+]([O-])c1ccc2c(c1)C(=NO)c1cc([N+](=O)[O-])ccc1-2,GI50,MOLT-4 leukemia,3.25 µM
same,TGI,MOLT-4 leukemia,7.61 µM
same,GI50,IGROV1 ovarian,2.52 µM
same,TGI,IGROV1 ovarian,7.6 µM
same,GI50,CAKI-1 renal,6.46 µM
same,TGI,CAKI-1 renal,> 100 µM
same,GI50,SW-620 colon,12.4 µM
same,TGI,SW-620 colon,> 100 µM
same,GI50,786-0 renal,10.8 µM
same,TGI,786-0 renal,> 100 µM
same,GI50,NCI-H522 lung,1.62 µM
same,TGI,NCI-H522 lung,11 µM
same,GI50,K-562 leukemia,11.7 µM
same,TGI,K-562 leukemia,> 100 µM
same,GI50,HCT-116 colon,6.71 µM
same,TGI,HCT-116 colon,> 100 µM
same,GI50,MALME-3M melanoma,11.7 µM
same,TGI,MALME-3M melanoma,> 100 µM
same,GI50,SF-539 CNS,37.7 µM
same,TGI,SF-539 CNS,> 100 µM
same,GI50,A549 NSCLC,7.23 µM
same,TGI,A549 NSCLC,> 100 µM
same,GI50,SK-MEL-5 melanoma,12.1 µM
same,TGI,SK-MEL-5 melanoma,34 µM
same,GI50,SK-MEL-28 melanoma,43.4 µM
same,TGI,SK-MEL-28 melanoma,> 100 µM
same,GI50,COLO 205 colon,39.5 µM
same,TGI,COLO 205 colon,> 100 µM
same,GI50,TK-10 renal,12.6 µM
same,TGI,TK-10 renal,> 100 µM
same,GI50,SK-MEL-2 melanoma,> 100 µM
same,TGI,SK-MEL-2 melanoma,> 100 µM
same,GI50,RPMI-8226 leukemia,29.4 µM
same,TGI,RPMI-8226 leukemia,> 100 µM
same,GI50,MCF7 breast,4.92 µM
same,TGI,MCF7 breast,> 100 µM
same,GI50,EKVX NSCLC,12.9 µM
same,TGI,EKVX NSCLC,> 100 µM
same,GI50,UO-31 renal,3.12 µM
same,TGI,UO-31 renal,23.5 µM
same,GI50,LOX IMVI melanoma,13.8 µM
same,TGI,LOX IMVI melanoma,> 100 µM
same,GI50,A498 renal,54 µM
same,TGI,A498 renal,> 100 µM
same,GI50,NCI-H23 lung,25.3 µM
same,TGI,NCI-H23 lung,> 100 µM
same,GI50,HL-60(TB) leukemia,4.19 µM
same,TGI,HL-60(TB) leukemia,22.9 µM
same,GI50,HOP-92 NSCLC,53.7 µM
same,TGI,HOP-92 NSCLC,> 100 µM
same,GI50,SNB-75 CNS,7.18 µM
same,TGI,SNB-75 CNS,75.8 µM
same,GI50,SF-268 CNS,33.6 µM
same,TGI,SF-268 CNS,> 100 µM
same,GI50,SNB-19 CNS,> 100 µM
same,TGI,SNB-19 CNS,> 100 µM
same,GI50,OVCAR-4 ovarian,12.7 µM
same,TGI,OVCAR-4 ovarian,> 100 µM
same,GI50,MDA-MB-231 breast,36.3 µM
same,TGI,MDA-MB-231 breast,> 100 µM
same,GI50,HT29 colon,19.5 µM
same,TGI,HT29 colon,> 100 µM
same,GI50,DU-145 prostate,55.1 µM
same,TGI,DU-145 prostate,> 100 µM
same,GI50,T-47D breast,79 µM
same,TGI,T-47D breast,> 100 µM
same,GI50,UACC-257 melanoma,62.6 µM
same,TGI,UACC-257 melanoma,> 100 µM
same,GI50,NCI-H226 lung,10.9 µM
same,TGI,NCI-H226 lung,29.1 µM
same,GI50,UACC-62 melanoma,11.5 µM
same,TGI,UACC-62 melanoma,> 100 µM
same,GI50,OVCAR-8 ovarian,74.7 µM
same,TGI,OVCAR-8 ovarian,> 100 µM
same,GI50,M14 melanoma,21.5 µM
same,TGI,M14 melanoma,> 100 µM
same,GI50,SK-OV-3 ovarian,> 100 µM
same,TGI,SK-OV-3 ovarian,> 100 µM
same,GI50,OVCAR-3 ovarian,68.4 µM
same,TGI,OVCAR-3 ovarian,> 100 µM
same,GI50,SF-295 CNS,13.5 µM
same,TGI,SF-295 CNS,> 100 µM
same,GI50,HCC-2998 colon,37.1 µM
same,TGI,HCC-2998 colon,> 100 µM
same,GI50,PC-3 prostate,24.2 µM
same,TGI,PC-3 prostate,> 100 µM
same,GI50,CCRF-CEM leukemia,13.6 µM
same,TGI,CCRF-CEM leukemia,> 100 µM
same,GI50,KM12 colon,18.6 µM
same,TGI,KM12 colon,> 100 µM
same,GI50,BT-549 breast,50.8 µM
same,TGI,BT-549 breast,> 100 µM
same,GI50,SN12C renal,20.5 µM
same,TGI,SN12C renal,> 100 µM
same,GI50,OVCAR-5 ovarian,> 100 µM
same,TGI,OVCAR-5 ovarian,> 100 µM
same,GI50,MDA-MB-435,22.5 µM
same,TGI,MDA-MB-435,> 100 µM
same,GI50,U251 CNS,10.7 µM
same,TGI,U251 CNS,> 100 µM
same,GI50,SR leukemia,2.88 µM
same,TGI,SR leukemia,9.86 µM
same,GI50,NCI-H460 lung,4.82 µM
same,TGI,NCI-H460 lung,> 100 µM
same,GI50,HS 578T breast,> 100 µM
same,TGI,HS 578T breast,> 100 µM
same,GI50,HOP-62 NSCLC,46.5 µM
same,TGI,HOP-62 NSCLC,> 100 µM
same,GI50,ACHN renal,4.98 µM
same,TGI,ACHN renal,39.7 µM
same,GI50,HCT-15 colon,8.92 µM
same,TGI,HCT-15 colon,> 100 µM
same,GI50,NCI/ADR-RES ovarian,16.3 µM
same,TGI,NCI/ADR-RES ovarian,> 100 µM
same,GI50,RXF 393 renal,> 100 µM
same,TGI,RXF 393 renal,> 100 µM
